Data on one compound can be found in ChEMBL document CHEMBL1149593, “Mechanism of the melanogenesis stimulation activity of (-)-cubebin in murine B16 melanoma cells” (2007).

Molecules are shown by their SMILES. Active and inactive are the calls of the source. No cut-off for these calls is given here.

Assay [1] deals with B16. The assay can be described thus: Melanogenesis stimulation activity in mouse B16 cells at 2 to 10 uM. It is filed as functional, cell-based.
For assay [2], the system named is B16. The assay is described as follows: Increase in melanin level in mouse B16 cells at 10 uM after 48 to 96 hrs. It is filed as functional, cell-based.
Assay [3] deals with B16. The assay is described as follows: Increase in tyrosinase activity in mouse B16 cells at 10 uM after 24 to 96 hrs. It is filed as functional, cell-based.
In assay [4] the test system is B16. The assay is described as follows: Increase in tyrosinase expression in mouse B16 cells at 10 uM after 48 hrs. Type of assay: functional.
Assay [5] has as its system B16. The assay is described as follows: Increase in tyrosinase mRNA expression in mouse B16 cells at 10 uM after 12 hrs. Type of assay: functional.
Assay [6] deals with MAP kinase p38 (Mus musculus) (UniProt P47811+O08911+Q9WUI1+Q9Z1B7). The assay can be described thus: Increase in p38 MAPK phosphorylation in mouse B16 cells at 4 to 8 hrs. Type of assay: cell-based.
Assay [7] deals with B16. The assay is described as follows: Induction of tyrosinase mRNA expression in mouse B16 cells in presence of SB-203580. It is filed as functional, cell-based.

With `O[C@H]1OC[C@H](Cc2ccc3c(c2)OCO3)[C@H]1Cc1ccc2c(c1)OCO2`, the result (in the assay on B16 [1]; in the assay on B16 [2]; in the assay with B16 [3]; in assay [6]) was Active. For the same compound, the values for the Fold change in the assay on B16 [4] and in the assay on B16 [5] were 6.2 and 1.8, respectively. For the same compound, the result in the assay with B16 [7] was inactive.
